Legend:
[1] = Cytotoxicity against human Bel7402 cells assessed as cell growth inhibition after 48 hrs by MTT assay; type: functional, cell-based; conditions: Bel-7402, 48 h
HCT-116 = assay: Selectivity index, ratio of IC50 for human L02 cells to IC50 for human HCT116 cells; type: functional
[2] = Cytotoxicity against human HeLa cells assessed as cell growth inhibition at 100 uM after 48 hrs by MTT assay; type: functional; conditions: read-out: GI
[3] = Cytotoxicity against human HCT116 cells assessed as cell growth inhibition after 48 hrs by MTT assay; type: functional, cell-based; conditions: HCT-116, 48 h
[4] = Cytotoxicity against human L02 cells assessed as cell growth inhibition after 48 hrs by MTT assay; type: toxicity, cell-based
[5] = Cytotoxicity against human HeLa cells assessed as cell growth inhibition after 48 hrs by MTT assay; type: functional, cell-based
[6] = Cytotoxicity against human L02 cells assessed as cell growth inhibition at 100 uM after 48 hrs by MTT assay; type: toxicity, cell-based; conditions: read-out: GI
Bel-7402 = assay: Selectivity index, ratio of IC50 for human L02 cells to IC50 for human Bel7402 cells; type: functional
[7] = Cytotoxicity against human Bel7402 cells assessed as cell growth inhibition at 100 uM after 48 hrs by MTT assay; type: functional; conditions: Bel-7402, 48 h, read-out: GI
[8] = Cytotoxicity against human HCT116 cells assessed as cell growth inhibition at 100 uM after 48 hrs by MTT assay; type: functional; conditions: HCT-116, 48 h, read-out: GI

Compound: CCCOc1ccc(/C=C(\C#N)c2cc(OC)cc(OC)c2)cc1
- IC50 [1]: 42 µM
- Ratio IC50 (HCT-116): >7.06
- inhibition of growth at 100 µM [2]: 27.6%
- IC50 [3]: 14.2 µM
- IC50 at 48 h [4]: > 100 µM
- IC50 [5]: > 100 µM
- inhibition at 48 h, 100 µM [6]: 34.4%
- Ratio IC50 (Bel-7402): >2.38

Compound: CCCCOc1ccc(/C=C(\C#N)c2cc(OC)cc(OC)c2)cc1
- IC50 [1]: > 100 µM
- inhibition of growth at 100 µM [7]: 15.4%
- inhibition of growth at 100 µM [2]: 18.6%
- inhibition of growth at 100 µM [8]: 45%
- IC50 [3]: > 100 µM
- IC50 at 48 h [4]: > 100 µM
- IC50 [5]: > 100 µM
- inhibition at 48 h, 100 µM [6]: 35.7%

Compound: COc1cc(OC)cc(/C(C#N)=C/c2cccc3ccccc23)c1
- IC50 [1]: 26.4 µM
- Ratio IC50 (HCT-116): 3.59
- inhibition of growth at 100 µM [2]: 44.9%
- IC50 [3]: 20.4 µM
- IC50 at 48 h [4]: 73.6 µM
- IC50 [5]: > 100 µM
- Ratio IC50 (Bel-7402): 2.78

Compound: COc1cc(OC)cc(/C(C#N)=C/c2ccco2)c1
- IC50 [1]: 75.7 µM
- Ratio IC50 (HCT-116): >30.21
- IC50 [3]: 3.31 µM
- IC50 at 48 h [4]: > 100 µM
- IC50 [5]: 112 µM
- inhibition at 48 h, 100 µM [6]: 38.5%
- Ratio IC50 (Bel-7402): >1.32

Compound: COc1cc(OC)cc(/C(C#N)=C/c2c(C)cc(C)cc2C)c1
- IC50 [1]: > 100 µM
- inhibition of growth at 100 µM [7]: 13.4%
- inhibition of growth at 100 µM [2]: 2.7%
- inhibition of growth at 100 µM [8]: 28.9%
- IC50 [3]: > 100 µM
- IC50 at 48 h [4]: > 100 µM
- IC50 [5]: > 100 µM
- inhibition at 48 h, 100 µM [6]: 28.1%

Compound: COc1cc(OC)cc(/C(C#N)=C/c2ccc(N(C)C)cc2)c1
- IC50 [1]: 1.74 µM
- Ratio IC50 (HCT-116): >169.49
- inhibition of growth at 100 µM [2]: 44.4%
- IC50 [3]: 0.59 µM
- IC50 at 48 h [4]: > 100 µM
- IC50 [5]: > 100 µM
- inhibition at 48 h, 100 µM [6]: 26.8%
- Ratio IC50 (Bel-7402): >57.47

Compound: CCOc1cccc(/C=C(\C#N)c2cc(OC)cc(OC)c2)c1
- IC50 [1]: > 100 µM
- inhibition of growth at 100 µM [7]: 5.1%
- inhibition of growth at 100 µM [2]: 8.9%
- inhibition of growth at 100 µM [8]: 38.8%
- IC50 [3]: > 100 µM
- IC50 at 48 h [4]: > 100 µM
- IC50 [5]: > 100 µM
- inhibition at 48 h, 100 µM [6]: 18.5%

Compound: COc1cc(OC)cc(/C(C#N)=C/c2c(F)cccc2Cl)c1
- IC50 [1]: > 100 µM
- inhibition of growth at 100 µM [7]: 11.1%
- inhibition of growth at 100 µM [2]: 35.9%
- inhibition of growth at 100 µM [8]: 32.9%
- IC50 [3]: > 100 µM
- IC50 at 48 h [4]: > 100 µM
- IC50 [5]: > 100 µM
- inhibition at 48 h, 100 µM [6]: 41.8%

Compound: COc1cc(OC)cc(/C(C#N)=C/c2ccc(OCC(C)C)cc2)c1
- IC50 [1]: > 100 µM
- inhibition of growth at 100 µM [7]: 7.6%
- inhibition of growth at 100 µM [2]: 22.4%
- inhibition of growth at 100 µM [8]: 32.3%
- IC50 [3]: > 100 µM
- IC50 at 48 h [4]: > 100 µM
- IC50 [5]: > 100 µM
- inhibition at 48 h, 100 µM [6]: 13.6%

Compound: COc1cc(OC)cc(/C(C#N)=C/c2ccccc2Br)c1
- IC50 [1]: > 100 µM
- inhibition of growth at 100 µM [7]: 17.4%
- Ratio IC50 (HCT-116): >11.84
- inhibition of growth at 100 µM [2]: 37.2%
- IC50 [3]: 8.44 µM
- IC50 at 48 h [4]: > 100 µM
- IC50 [5]: > 100 µM
- inhibition at 48 h, 100 µM [6]: 8.2%

Compound: COc1cc(OC)cc(/C(C#N)=C/c2ccccc2Cl)c1
- IC50 [1]: 28.5 µM
- Ratio IC50 (HCT-116): >11.57
- IC50 [3]: 8.64 µM
- IC50 at 48 h [4]: > 100 µM
- IC50 [5]: 28.2 µM
- inhibition at 48 h, 100 µM [6]: 11.8%
- Ratio IC50 (Bel-7402): >3.51

Compound: COc1cc(OC)cc(/C(C#N)=C/c2cc(OC)c(OC)c(OC)c2)c1
- IC50 [1]: > 100 µM
- inhibition of growth at 100 µM [7]: 22.3%
- inhibition of growth at 100 µM [2]: 24.9%
- inhibition of growth at 100 µM [8]: 24.1%
- IC50 [3]: > 100 µM
- IC50 at 48 h [4]: > 100 µM
- IC50 [5]: > 100 µM
- inhibition at 48 h, 100 µM [6]: 11.6%

Compound: COc1cc(OC)cc(/C(C#N)=C/c2ccc(F)cc2)c1
- IC50 [1]: > 100 µM
- inhibition of growth at 100 µM [7]: 9.3%
- inhibition of growth at 100 µM [2]: 45.8%
- inhibition of growth at 100 µM [8]: 27.8%
- IC50 [3]: > 100 µM
- IC50 at 48 h [4]: > 100 µM
- IC50 [5]: > 100 µM
- inhibition at 48 h, 100 µM [6]: 2.5%

Compound: COc1cc(OC)cc(/C(C#N)=C/c2ccc(C(F)(F)F)cc2)c1
- IC50 [1]: 27.6 µM
- Ratio IC50 (HCT-116): >4.58
- inhibition of growth at 100 µM [2]: 48.2%
- IC50 [3]: 21.8 µM
- IC50 at 48 h [4]: > 100 µM
- IC50 [5]: > 100 µM
- inhibition at 48 h, 100 µM [6]: 22.9%
- Ratio IC50 (Bel-7402): >3.62

Compound: COc1cc(OC)cc(/C(C#N)=C/c2cccs2)c1
- IC50 [1]: 36.7 µM
- Ratio IC50 (HCT-116): >3.16
- inhibition of growth at 100 µM [2]: 42.2%
- IC50 [3]: 31.6 µM
- IC50 at 48 h [4]: > 100 µM
- IC50 [5]: > 100 µM
- inhibition at 48 h, 100 µM [6]: 41.7%
- Ratio IC50 (Bel-7402): >2.73

Compound: COc1cc(OC)cc(/C(C#N)=C/c2ccc(C)cc2)c1
- IC50 [1]: 0.59 µM
- Ratio IC50 (HCT-116): >50
- inhibition of growth at 100 µM [2]: 38.6%
- IC50 [3]: 2 µM
- IC50 at 48 h [4]: > 100 µM
- IC50 [5]: > 100 µM
- inhibition at 48 h, 100 µM [6]: 23.1%
- Ratio IC50 (Bel-7402): >169.49

Compound: COc1cc(OC)cc(/C(C#N)=C/c2ccccn2)c1
- IC50 [1]: 80.5 µM
- Ratio IC50 (HCT-116): 14.66
- IC50 [3]: 5.15 µM
- IC50 at 48 h [4]: 75.5 µM
- IC50 [5]: 56 µM
- Ratio IC50 (Bel-7402): 0.94

Compound: COc1cc(OC)cc(/C(C#N)=C/c2cccc(Br)c2)c1
- IC50 [1]: > 100 µM
- inhibition of growth at 100 µM [7]: 19.8%
- inhibition of growth at 100 µM [2]: 40.2%
- inhibition of growth at 100 µM [8]: 38.2%
- IC50 [3]: > 100 µM
- IC50 at 48 h [4]: > 100 µM
- IC50 [5]: > 100 µM
- inhibition at 48 h, 100 µM [6]: 43.2%

Compound: COc1cc(OC)cc(/C(C#N)=C/c2ccccc2)c1
- IC50 [1]: > 100 µM
- inhibition of growth at 100 µM [7]: 34.8%
- inhibition of growth at 100 µM [2]: 28%
- inhibition of growth at 100 µM [8]: 27.1%
- IC50 [3]: > 100 µM
- IC50 at 48 h [4]: > 100 µM
- IC50 [5]: > 100 µM
- inhibition at 48 h, 100 µM [6]: 36.4%

Compound: COc1cc(OC)cc(/C(C#N)=C/c2cccc(F)c2)c1
- IC50 [1]: 61.3 µM
- Ratio IC50 (HCT-116): >2.63
- inhibition of growth at 100 µM [2]: 41.7%
- IC50 [3]: 38 µM
- IC50 at 48 h [4]: 96 µM
- IC50 [5]: > 100 µM
- inhibition at 48 h, 100 µM [6]: 96%
- Ratio IC50 (Bel-7402): >1.63

Compound: COc1cc(OC)cc(/C(C#N)=C/c2ccccc2F)c1
- IC50 [1]: 72.6 µM
- Ratio IC50 (HCT-116): >8.19
- inhibition of growth at 100 µM [2]: 44.4%
- IC50 [3]: 12.2 µM
- IC50 at 48 h [4]: > 100 µM
- IC50 [5]: > 100 µM
- inhibition at 48 h, 100 µM [6]: 34.6%
- Ratio IC50 (Bel-7402): >1.38

Compound: COc1cc(OC)cc(/C(C#N)=C/c2ccc(OCc3ccccc3)cc2)c1
- IC50 [1]: > 100 µM
- inhibition of growth at 100 µM [7]: 18.6%
- inhibition of growth at 100 µM [2]: 20.7%
- inhibition of growth at 100 µM [8]: 18.7%
- IC50 [3]: > 100 µM
- IC50 at 48 h [4]: > 100 µM
- IC50 [5]: > 100 µM
- inhibition at 48 h, 100 µM [6]: 32.7%

Compound: CCc1ccc(/C=C(\C#N)c2cc(OC)cc(OC)c2)cc1
- IC50 [1]: 0.35 µM
- Ratio IC50 (HCT-116): >76.92
- inhibition of growth at 100 µM [2]: 40.6%
- IC50 [3]: 1.3 µM
- IC50 at 48 h [4]: > 100 µM
- IC50 [5]: > 100 µM
- inhibition at 48 h, 100 µM [6]: 32.8%
- Ratio IC50 (Bel-7402): >285.71

Compound: COc1cc(OC)cc(/C(C#N)=C/c2ccc(Cl)cc2)c1
- IC50 [1]: 8.04 µM
- Ratio IC50 (HCT-116): >2.31
- IC50 [3]: 43.3 µM
- IC50 at 48 h [4]: > 100 µM
- IC50 [5]: 15.9 µM
- inhibition at 48 h, 100 µM [6]: 33.6%
- Ratio IC50 (Bel-7402): >12.43

Compound: CCCOc1ccccc1/C=C(\C#N)c1cc(OC)cc(OC)c1
- IC50 [1]: > 100 µM
- inhibition of growth at 100 µM [7]: 4.9%
- inhibition of growth at 100 µM [8]: 27.7%
- IC50 [3]: > 100 µM
- IC50 at 48 h [4]: > 100 µM
- IC50 [5]: > 100 µM
- inhibition at 48 h, 100 µM [6]: 6.4%

— ChEMBL document CHEMBL3872241, “Synthesis and bioactivity evaluation of 2,3-diaryl acrylonitrile derivatives as potential anticancer agents” (Bioorg Med Chem Lett, 2017)
